How the values were obtained:
human TASK-1 = human TASK-1 (Homo sapiens, UniProt O14649); assay: Inhibition of recombinant TASK-1 in stably transfected CHO cells, KCl-induced depolarization, voltage-sensitive dye (B-2); assay type: cell-based; set-up: expressed in transfected cells; host or cells: stably transfected CHO cells; details: depolarization induced by 40 mM potassium chloride, some mean values from multiple determinations
Experimental: (§1) B-2. Inhibition of Recombinant TASK-1 and TASK-3 In Vitro
(§2) The investigations on the inhibition of the recombinant TASK-1 and TASK-3 channels were conducted using stably transfected CHO cells. The compounds of the invention were tested here with administration of 40 mM of potassium chloride in the presence of a voltage-sensitive dye using the method described in detail in the following references [Whiteaker et al., Validation of FLIPR membrane potential dye for high-throughput screening of potassium channel modulators, J. Biomol. Screen. 6 (5), 305-312 (2001); Molecular Devices FLIPR Application Note: Measuring membrane potential using the FLIPR® membrane potential assay kit on Fluorometric Imaging Plate Reader (FLIPR®) systems, http://www.moleculardevices.com/reagents-supplies/assay-kits/ion-channels/flipr-membrane-potential-assay-kits]. The activity of the test substances was determined as their ability to inhibit a depolarization induced in the recombinant cells by 40 mM potassium chloride. The concentration which can block half of this depolarization is referred to as IC50).
(§3) Table 2 below lists the IC50 values from this assay determined for individual working examples of the invention (some as mean values from multiple independent individual determinations): […]

human TASK-3 = human TASK-3 (Homo sapiens, UniProt Q9NPC2); assay: Inhibition of recombinant TASK-3 in stably transfected CHO cells, KCl-induced depolarization, voltage-sensitive dye (B-2); assay type: cell-based; set-up: expressed in transfected cells; host or cells: stably transfected CHO cells; details: depolarization induced by 40 mM potassium chloride, some mean values from multiple determinations
Chain of human TASK-3 (Q9NPC2 whole entry): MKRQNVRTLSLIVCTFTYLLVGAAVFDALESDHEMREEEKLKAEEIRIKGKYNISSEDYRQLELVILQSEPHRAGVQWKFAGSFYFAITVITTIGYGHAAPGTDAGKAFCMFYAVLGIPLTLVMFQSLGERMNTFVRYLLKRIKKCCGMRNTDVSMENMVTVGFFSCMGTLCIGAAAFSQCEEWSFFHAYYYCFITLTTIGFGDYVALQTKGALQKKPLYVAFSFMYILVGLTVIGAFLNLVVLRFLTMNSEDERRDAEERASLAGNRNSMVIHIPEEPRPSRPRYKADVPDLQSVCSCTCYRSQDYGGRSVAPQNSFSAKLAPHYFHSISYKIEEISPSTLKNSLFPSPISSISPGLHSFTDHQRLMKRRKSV
Experimental: as §1, §2, §3

Chain of human TASK-1 (O14649 whole entry): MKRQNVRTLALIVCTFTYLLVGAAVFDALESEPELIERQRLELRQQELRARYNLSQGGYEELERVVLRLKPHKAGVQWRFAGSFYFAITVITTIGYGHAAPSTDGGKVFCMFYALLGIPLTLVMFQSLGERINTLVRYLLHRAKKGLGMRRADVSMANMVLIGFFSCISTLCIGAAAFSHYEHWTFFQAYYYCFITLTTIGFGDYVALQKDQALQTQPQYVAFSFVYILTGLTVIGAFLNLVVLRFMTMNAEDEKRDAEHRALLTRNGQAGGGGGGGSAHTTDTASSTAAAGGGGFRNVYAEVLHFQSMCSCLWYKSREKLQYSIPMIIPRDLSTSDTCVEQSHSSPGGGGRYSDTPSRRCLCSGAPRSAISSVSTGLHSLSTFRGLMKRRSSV

SMILES	IC50 (human TASK-1) [nM]	IC50 (human TASK-3) [nM]
COc1ccc(C)c(C(=O)N2CC3CCC(C2)N3Cc2c(-c3ccc(Cl)cc3)nc3ccccn23)n1 [Example 143, (8-{[2-(4-Chlorophenyl)imidazo[1,2-a]pyridin-3-yl]methyl}-3,8-diazabicyclo[3.2.1]oct-3-yl)(6-methoxy-3-methylpyridin-2-yl)methanone]	130	14
Cc1nc(C(=O)N2C3CCC2CN(Cc2c(-c4ccc(Cl)cc4)nc4ccccn24)C3)sc1C [Example 150, (3-{[2-(4-Chlorophenyl)imidazo[1,2-a]pyridin-3-yl]methyl}-3,8-diazabicyclo[3.2.1]oct-8-yl)(4,5-dimethyl-1,3-thiazol-2-yl)methanone]	2700	210
COc1cccc(C(=O)N2CC3CCC2CN3Cc2c(-c3ccc(C(C)C)cc3)nc3ccccn23)n1 (single isomer, unassigned) [Example 61]	680	87
CC(C)c1cccc(C(=O)N2C3COCC2CN(Cc2c(-c4ccc(Cl)cc4)nc4ccccn24)C3)c1 [Example 76]	240	14
COc1ccc(F)cc1C(=O)N1CC2CCC1CN2Cc1c(-c2ccc(Cl)cc2)nc2ccccn12 (single isomer, unassigned) [Example 45]	340	13
O=C(c1ccccc1F)N1CC2CCC1CN2Cc1c(-c2ccc(Cl)cc2)nc2ccccn12 (single isomer, unassigned) [Example 35]	350	200
O=C(c1cc(F)ccc1Cl)N1C2CCC1CN(Cc1c(-c3ccc(Cl)cc3)nc3ccccn13)C2 [Example 106]	870	110
COc1cccc(C(=O)N2CC3CCC(C2)N3Cc2c(-c3ccc(C(C)C)cc3)nc3ccccn23)n1 [Example 95]	1700	350
O=C(C1CCC1)N1CC2CCC1CN2Cc1c(-c2ccc(Cl)cc2)nc2ccccn12 (single isomer, unassigned) [Example 43]	320	8.9
O=C(c1cccc(OC(F)(F)F)c1)N1C2COCC1CN(Cc1c(-c3ccc(Cl)cc3)nc3ccccn13)C2 [Example 72]	2000	120
CN(C)C(=O)N1C2CCC1CN(Cc1c(-c3ccc(Cl)cc3)nc3ccccn13)C2 [Example 180, 3-{[2-(4-Chlorophenyl)imidazo[1,2-a]pyridin-3-yl]methyl}-N,N-dimethyl-3,8-diazabicyclo[3.2.1]octane-8-carboxamide]	220	23
COc1ccc(C)c(C(=O)N2CC3CCC(C2)N3Cc2c(-c3ccc(C(C)C)cc3)nc3ccccn23)n1 [Example 144, (8-{[2-(4-Isopropylphenyl)imidazo[1,2-a]pyridin-3-yl]methyl}-3,8-diazabicyclo[3.2.1]oct-3-yl)(6-methoxy-3-methylpyridin-2-yl)methanone]	180	27
O=C(c1ccccc1F)N1C2CC1CN(Cc1c(-c3ccc(Cl)cc3)nc3ccccn13)C2 [Example 117]	635	520
COc1ccc(F)cc1C(=O)N1C2COCC1CN(Cc1c(-c3ccc(Cl)cc3)nc3ccccn13)C2 [Example 75]	380	30
COc1cccc(C(=O)N2C3COCC2CN(Cc2c(-c4ccc(Cl)cc4)nc4ccccn24)C3)c1 [Example 70]	1900	160
O=C(OC1CCCC1)N1C2COCC1CN(Cc1c(-c3ccc(Cl)cc3)nc3ccccn13)C2 [Example 196, Cyclopentyl 7-{[2-(4-chlorophenyl)imidazo[1,2-a]pyridin-3-yl]methyl}-3-oxa-7,9-diazabicyclo[3.3.1]nonane-9-carboxylate]	440	52
CCc1cccc(C)c1NC(=O)N1C2CCC1CN(Cc1c(-c3ccc(Cl)cc3)nc3ccccn13)C2 [Example 162, 3-{[2-(4-Chlorophenyl)imidazo[1,2-a]pyridin-3-yl]methyl}-N-(2-ethyl-6-methylphenyl)-3,8-diazabicyclo[3.2.1]octane-8-carboxamide]	53	13
COc1ccc(F)c(C(=O)N2C3COCC2CN(Cc2c(-c4ccc(Cl)cc4)nc4ccccn24)C3)n1 [Example 30, (7-{[2-(4-Chlorophenyl)imidazo[1,2a]pyridin-3-yl]methyl}-3-oxa-7,9-diazabicyclo[3.3.1]non-9-yl)(3-fluoro-6-methoxypyridin-2-yl)methanone]	770	21
CN(C(=O)N1C2CCC1CN(Cc1c(-c3ccc(Cl)cc3)nc3ccccn13)C2)c1ccccc1 [Example 172, 3-{[2-(4-Chlorophenyl)imidazo[1,2-a]pyridin-3-yl]methyl}-N-methyl-N-phenyl-3,8-diazabicyclo[3.2.1]octane-8-carboxamide]	5200	80
CC(C)(C)OC(=O)N1C2COCC1CN(Cc1c(-c3ccc(Cl)cc3)nc3ccccn13)C2 [Example 4, tert-Butyl 7-{[2-(4-chlorophenyl)imidazo[1,2-a]pyridin-3-yl]methyl}-3-oxa-7,9-diazabicyclo[3.3.1]nonane-9-carboxylate]	560	43
CC(C)N(C)C(=O)N1C2COCC1CN(Cc1c(-c3ccc(Cl)cc3)nc3ccccn13)C2 [Example 194, 7-{[2-(4-Chlorophenyl)imidazo[1,2-a]pyridin-3-yl]methyl}-N-isopropyl-N-methyl-3-oxa-7,9-diazabicyclo[3.3.1]nonane-9-carboxamide]	3000	290
COc1ccc(F)c(C(=O)N2C[C@@H]3CC[C@H]2CN3Cc2c(-c3ccc(Cl)cc3)nc3ccccn23)n1 (single isomer, unassigned; enantiomer 1) [Example 23]	790	170
COc1ccc(F)c(C(=O)N2CC3CCC2CN3Cc2c(-c3ccc(C(C)C)nc3)nc3ccccn23)n1 (single isomer, unassigned) [Example 127, (3-Fluoro-6-methoxypyridin-2-yl)(5-{[2-(6-isopropylpyridin-3-yl)imidazo[1,2-a]pyridin-3-yl]methyl}-2,5-diazabicyclo[2.2.2]oct-2-yl)methanone]	9450	670
O=C(C1CCC1)N1C2CCC1CN(Cc1c(-c3ccc(Cl)cc3)nc3ccccn13)C2 [Example 101]	370	7.2
O=C(C1CCCCC1)N1C2CC1CN(Cc1c(-c3ccc(Cl)cc3)nc3ccccn13)C2 [Example 118]	860	1000
O=C(C1CCCC1)N1C2CCC1CN(Cc1c(-c3ccc(Cl)cn3)nc3ccccn13)C2 [Example 113]	89	21
CC(C)c1ccc(-c2nc3ccccn3c2CN2CC3CC(C2)N3C(=O)C2CCCC2)cc1 [Example 123]	2000	1600
O=C(N1CCCCC1)N1C2COCC1CN(Cc1c(-c3ccc(Cl)cc3)nc3ccccn13)C2 [Example 198, (7-{[2-(4-Chlorophenyl)imidazo[1,2-a]pyridin-3-yl]methyl}-3-oxa-7,9-diazabicyclo[3.3.1]non-9-yl)(piperidin-1-yl)methanone]	810	60
Cc1ccc(F)cc1C(=O)N1CC2CCC(C1)N2Cc1c(-c2ccc(Cl)cc2)nc2ccccn12 [Example 88]	766	210
